Measured values published in paper PMC10535292, “Quinoline- and Isoindoline-Integrated Polycyclic Compounds as Antioxidant, and Antidiabetic Agents Targeting the Dual Inhibition of α-Glycosidase and α-Amylase Enzymes” (Pharmaceuticals, 2023).
Read-outs that look alike come from different tables or passages of the source.

Legend:
[1] = Superoxide anion radical scavenging assay; conditions: mean ± SE, triplicate; read-out: EC50 Radical Scavenging Activities Superoxide Anion Radicals
Protocol: (§1) The ability of the samples to scavenge free radicals was evaluated using a range of in vitro tests, including DPPH, ABTS, and superoxide anion radicals, with BHA utilized as a positive control.
(§2) The DPPH free radical, ABTS cation radical, and superoxide anion radical scavenging approaches were used in the antioxidant activity of the present study. The capacity for the radical scavenging was represented by EC50 values. […] Every sample was observed three times. Butylated hydroxyanisole (BHA) is the positive control drug in this evaluation of antioxidant activity.

[2] = DPPH free radical scavenging assay; conditions: mean ± SE, triplicate; read-out: EC50 Radical Scavenging Activities DPPH
Protocol: as §1, §2

[3] = target: T1, type-VI B porcine pancreatic α-amylase (Sus scrofa, UniProt P00690); assay: α-Amylase inhibition with soluble starch (1%); format: biochemical; conditions: mean ± SE, triplicate
T1 construct: type-VI B porcine pancreatic α-amylase; from tissue; host or cells: porcine pancreas (preparation grade 'type-VI B')
T1 sequence (P00690 16-511): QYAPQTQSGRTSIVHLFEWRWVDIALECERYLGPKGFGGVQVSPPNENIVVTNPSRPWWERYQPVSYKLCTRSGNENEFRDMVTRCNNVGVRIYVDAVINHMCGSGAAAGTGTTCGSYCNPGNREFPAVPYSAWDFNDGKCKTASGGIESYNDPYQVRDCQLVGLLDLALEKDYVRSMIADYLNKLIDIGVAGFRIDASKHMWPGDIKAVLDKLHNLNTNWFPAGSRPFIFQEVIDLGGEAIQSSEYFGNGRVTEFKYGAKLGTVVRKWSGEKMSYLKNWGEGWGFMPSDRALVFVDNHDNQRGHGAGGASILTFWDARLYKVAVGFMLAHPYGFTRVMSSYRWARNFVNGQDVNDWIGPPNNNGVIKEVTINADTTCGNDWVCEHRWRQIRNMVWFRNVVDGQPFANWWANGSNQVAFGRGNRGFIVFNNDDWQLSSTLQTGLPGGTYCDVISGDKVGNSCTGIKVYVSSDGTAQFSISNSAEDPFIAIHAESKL
Protocol: Moreover, similar tests were carried out to reveal if the synthesized molecules inhibited α-amylase, another important carbohydrate-hydrolyzing enzyme.
(§3) Inhibitory activity of α-amylase and α-glycosidase was expressed as percent inhibition, calculated using the following formula. Inhibition (%) = (A control − A sample)/A control × 100
(§4) The IC50 values were obtained from a graph that correlated the percentage of the inhibition of each sample with its concentration. Each experiment included three replicates, along with appropriate blanks.

[4] = ABTS cation radical scavenging assay; conditions: mean ± SE, triplicate; read-out: EC50 Radical Scavenging Activities ABTS
Protocol: as §1, §2

yeast α-glycosidase [5] = target: T2, yeast α-glycosidase (Saccharomyces cerevisiae, UniProt P38158); assay: biochemical
Description: as §3, §4

α-amylase = target: T3, α-amylase (Sus scrofa, UniProt P00690); assay: Kinetic analysis of α-amylase inhibition (Lineweaver–Burk, Dixon plots); format: biochemical, porcine
T3 construct: type-VI B porcine pancreatic α-amylase; from tissue; host or cells: porcine pancreas (preparation grade 'type-VI B')
T3 sequence (P00690 16-511): T1 sequence (P00690 16-511)
Protocol: (§5) For the kinetic studies, α-glycosidase and α-amylase were incubated with designated concentrations of the substrate pNPG and starch, respectively, in the absence (control) or presence of IC20-, IC40-, and IC60-inhibitory concentrations of 7d. The mode of inhibition, [Km], and [Vmax] values were determined by graphical means using Lineweaver–Burk plots. […] The kinetic results established that the maximum velocity (Vmax) of the 7d reaction (with increasing concentrations) remained constant and was catalyzed by α-glycosidase and α-amylase (Table 3).
(§6) The enzyme kinetics of the compounds’ inhibition of the glycosidase activity were examined using different concentrations of the substrate against the IC20, IC40, and IC60 inhibitory concentrations of the compounds, as previously reported. The type of inhibition, Km, and Vmax were calculated using a double-reciprocal plot of the substrate concentration and velocity (1/V against 1/[pNPG]). The inhibitory constant (Ki) was also determined using the Dixon plot.

yeast α-glycosidase [6] = target: T2, yeast α-glycosidase; assay: Kinetic analysis of α-glycosidase inhibition (Lineweaver–Burk, Dixon plots); format: biochemical
Protocol: as §5, §6

T2 sequence (P38158 whole entry): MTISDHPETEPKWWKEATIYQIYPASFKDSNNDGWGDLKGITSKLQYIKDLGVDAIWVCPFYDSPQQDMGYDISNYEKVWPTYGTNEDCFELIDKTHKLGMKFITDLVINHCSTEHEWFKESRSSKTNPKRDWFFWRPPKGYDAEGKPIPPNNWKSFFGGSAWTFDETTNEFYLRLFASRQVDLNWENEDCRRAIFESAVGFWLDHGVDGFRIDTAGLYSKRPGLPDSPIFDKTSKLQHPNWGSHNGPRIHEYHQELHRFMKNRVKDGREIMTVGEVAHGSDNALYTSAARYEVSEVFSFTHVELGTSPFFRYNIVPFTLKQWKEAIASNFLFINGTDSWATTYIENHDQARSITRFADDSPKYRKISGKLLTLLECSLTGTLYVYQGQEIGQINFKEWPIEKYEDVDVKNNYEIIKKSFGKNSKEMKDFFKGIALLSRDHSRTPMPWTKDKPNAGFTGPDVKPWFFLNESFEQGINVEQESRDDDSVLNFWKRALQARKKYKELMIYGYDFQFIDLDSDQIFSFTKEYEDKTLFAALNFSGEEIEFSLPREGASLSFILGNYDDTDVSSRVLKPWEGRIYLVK

Compound | EC50 [1] [µM] | EC50 [2] [µM] | IC50 [3] [µM] | EC50 [4] [µM] | melting point [°C] | IC50 (yeast α-glycosidase [5]) [µM] | further results
N#Cc1c(-c2ccccc2O)cc(N2C(=O)c3ccccc3C2=O)[nH]c1=O [8c, 6-(1,3-Dioxoisoindolin-2-yl)-4-(2-hydroxyphenyl)-2-oxo-1,2-dihydropyridine-3-carbonitrile] | 5150 ± 770 | 2500 ± 1110 | 3550 ± 1550 | 2440 ± 670 | 205 to 207 | 1800 ± 720 | 
COc1ccc(O)c(C(C)(C)C)c1 [BHA, Butylated hydroxyanisole, reference compound] | 950 ± 170 | 800 ± 320 |  | 640 ± 310 |  |  | 
S=C1N=NC(COc2cccc3cccnc23)=N1 [compound 6, 5-((Quinolin-8-yloxy)methyl)-3H-1,2,4-triazole-3-thione] | 6100 ± 1540 | 3330 ± 860 | 3650 ± 2470 | 8010 ± 330 | 187 to 189 | 1500 ± 2000 | 
N#Cc1c(-c2ccc([N+](=O)[O-])cc2)nn(C(=O)COc2cccc3cccnc23)c1N [4a, 5-Amino-3-(4-nitrophenyl)-1-(2-(quinolin-8-yloxy)acetyl)-1H-pyrazole-4-carbonitrile] | 1110 ± 270 | 1500 ± 770 | 720 ± 510 | 1300 ± 1000 | 157 to 159 | 240 ± 50 | 
N#Cc1c(-c2ccc([N+](=O)[O-])cc2)cc(N2C(=O)c3ccccc3C2=O)[nH]c1=O [8b, 6-(1,3-Dioxoisoindolin-2-yl)-4-(4-nitrophenyl)-2-oxo-1,2-dihydropyridine-3-carbonitrile] | 6000 ± 2450 | 4500 ± 790 | 1600 ± 830 | 9880 ± 2250 | 221 to 223 | 1010 ± 40 | 
NNC(=O)COc1cccc2cccnc12 [compound 1, 2-(Quinolin-8-yloxy)acetohydrazide] | 4500 ± 1110 | 4650 ± 2250 | 900 ± 1040 | 4500 ± 1140 | 137 to 139 |  | IC50 (yeast α-glycosidase [5]; mean ± SE, triplicate, read-out: IC50 α-Glycosidase): 500 ± 660 µM
N#Cc1c(-c2ccccc2O)cc(N2C(=O)c3ccccc3C2=O)nc1N [compound 7c, 2-Amino-6-(1,3-dioxoisoindolin-2-yl)-4-(2-hydroxyphenyl)nicotinonitrile] | 1000 | 1000 ± 850 | 260 ± 320 | 1230 ± 480 | 160 to 162 | 110 ± 40 | 
CC(=NNC(=O)COc1cccc2cccnc12)c1ccc(N2C(=O)c3ccccc3C2=O)cc1 [compound 3, N’-(1-(4-(1,3-Dioxoisoindolin-2-yl)phenyl)ethylidene)-2-(quinolin-8-yloxy)acetohydrazide] | 1100 ± 550 | 1600 ± 1020 | 910 ± 1550 | 1350 ± 1100 | 211 to 213 | 470 ± 350 | 
N#Cc1c(-c2ccccc2O)nn(C(=O)COc2cccc3cccnc23)c1N [4c, 5-Amino-3-(2-hydroxyphenyl)-1-(2-(quinolin-8-yloxy)acetyl)-1H-pyrazole-4-carbonitrile] | 5950 ± 1050 | 4550 ± 1570 | 1600 ± 770 | 7860 ± 550 | 157 to 159 | 1110 ± 740 | 
N#Cc1c(-c2ccccc2)cc(N2C(=O)c3ccccc3C2=O)nc1N [compound 7a, 2-Amino-6-(1,3-dioxoisoindolin-2-yl)-4-phenylnicotinonitrile] | 2250 ± 660 | 1990 ± 90 | 3500 ± 1000 | 2250 ± 220 | 167 to 169 | 1780 ± 60 | 
N#Cc1c(-c2ccc(Cl)c(Cl)c2O)cc(N2C(=O)c3ccccc3C2=O)[nH]c1=O [8d, 4-(3,4-Dichloro-2-hydroxyphenyl)-6-(1,3-dioxoisoindolin-2-yl)-2-oxo-1,2-dihydropyridine-3-carbonitrile] | 5220 ± 850 | 5050 ± 2220 | 5000 ± 3000 | 9990 ± 1890 | 233 to 235 | 2220 ± 110 | 
N#Cc1c(-c2ccc(Cl)c(Cl)c2O)cc(N2C(=O)c3ccccc3C2=O)nc1N [compound 7d, 2-Amino-4-(3,4-dichloro-2-hydroxyphenyl)-6-(1,3-dioxoisoindolin-2-yl)nicotinonitrile] | 930 ± 120 | 650 ± 30 | 210 ± 60 | 520 ± 250 |  | 70 ± 100 | Ki (dissociation constant) (α-amylase; Dixon plot, mean ± SE): 0.75 mg; Mode of Inhibition (α-amylase; Lineweaver–Burk plot): competitive inhibition; IC20 (α-amylase; inhibitory concentration used in kinetics): 80 µM; 1/Vmax (reciprocal maximum velocity) (α-amylase; treatment IC20 0.08 μg): 13.01 10^3 (µM/min)^−1; 1/Vmax (reciprocal maximum velocity) (α-amylase; treatment IC40 0.16 μg): 13.90 10^3 (µM/min)^−1; 1/Vmax (reciprocal maximum velocity) (α-amylase; treatment IC60 0.25 μg): 13.15 10^3 (µM/min)^−1; IC20 (yeast α-glycosidase [6]): 30 µM; Ki (dissociation constant) (yeast α-glycosidase [6]; α-glycosidase, Dixon plot, mean ± SE): 0.47 mg; Mode of Inhibition (yeast α-glycosidase [6]; α-glycosidase, Lineweaver–Burk plot): competitive inhibition; 1/Vmax (reciprocal maximum velocity) (yeast α-glycosidase [6]; α-glycosidase, treatment IC20 0.03 μg): 28.82 10^3 (µM/min)^−1; 1/Vmax (reciprocal maximum velocity) (yeast α-glycosidase [6]; α-glycosidase, treatment IC40 0.06 μg): 29.00 10^3 (µM/min)^−1; 1/Vmax (reciprocal maximum velocity) (yeast α-glycosidase [6]; α-glycosidase, treatment IC60 0.08 μg): 29.29 10^3 (µM/min)^−1
N#Cc1c(-c2ccc([N+](=O)[O-])cc2)cc(N2C(=O)c3ccccc3C2=O)nc1N [7b, 2-Amino-6-(1,3-dioxoisoindolin-2-yl)-4-(4-nitrophenyl)nicotinonitrile] | 2300 ± 1990 | 2000 ± 150 | 1500 ± 1500 | 2600 ± 770 | 153 to 155 | 1050 ± 880 | 
N#Cc1c(-c2ccc(Cl)cc2)nn(C(=O)COc2cccc3cccnc23)c1N [compound 4b, 5-Amino-3-(4-chlorophenyl)-1-(2-(quinolin-8-yloxy)acetyl)-1H-pyrazole-4-carbonitrile] | 4500 ± 2000 | 5000 ± 250 | 1550 ± 1670 | 4750 ± 420 | 163 to 165 | 990 ± 330 | 
N#Cc1c(-c2ccccc2)cc(N2C(=O)c3ccccc3C2=O)[nH]c1=O [compound 8a, 6-(1,3-Dioxoisoindolin-2-yl)-2-oxo-4-phenyl-1,2-dihydropyridine-3-carbonitrile] | 5780 ± 3010 | 3250 ± 1230 | 880 ± 360 | 10000 ± 1170 | 216 to 218 | 1000 | 
